Experimental data published in patent publication US10314912B2, “Polymer coating compositions and coated products” (Ariste Medical, LLC, priority 2012, dated 2019).

What was measured:
[1] = HPLC test of drug stability to curing light in coating composition components
Procedure: HPLC tests were performed to assess the effects of various components of the coating composition on drug stability. HPLC analysis was run on the starting 50 μg/ml drug solution as a control. HPLC parameters were as follows: Channel A=>35 mM sodium phosphate pH=7.5 w/1 v % TEA; Channel B=>acetonitrile; 0-50% B 0-10 min, 50% B 10-13 min, 50-0% B 13-15 min, 0% B 6 min post time; 20 μl injections; 1 ml/min; 30° C.; 335 nm. […] Samples tested included: (1) Solvent+Drug; (2) Solvent+Photoinitiator (PI)+Drug; and (3) Solvent+Monomer Component+PI+Drug. […] The Solvent+PI+Drug (Sample 2) samples were prepared as follows: 1% wt/wt IrgaCure® 2959 was added to the 50 μg/ml drug solution solutions and cured according to the parameters described for Formulation 5 in Table 2. The Solvent+Monomer Component+PI+Drug+Drug (Sample 3) were prepared as follows: ˜3 ml Formulation 5 (Table 2) inspired solution with exception of using the 50 μg/ml drug solution and 20 wt % comonomer as the solvent was created and exposed to cure parameters detailed for Formulation 5 (Table 2) followed by HPLC analysis upon blending 1:1 with methanol, to terminate polymerization reaction/free-radicals. Note: polymerization of small volumes of Formulation 5 results in evaporation of the acetone solvent, thereby concentrating the monomers. […] FIG. 5A depicts HPLC chromatograms from the Sample 1 (dark gray line) and Sample 2 (light gray line) without exposure to light. […] FIG. 5B depicts chromatograms from the Sample 1 samples without light exposure and with light exposure. […] FIG. 5C depicts chromatograms from Sample 2 without light exposure and with light exposure. […] FIG. 5D depicts chromatograms from Sample 1 and Sample 3 after exposure to light.

[2] = HPLC of methanol extracts: drug loading of coated ePTFE hernia mesh; type: physicochemical; details: soak in 10 mg/ml of each drug in methanol, ~17 hours, 4° C
Procedure: Specimens were then removed from drug solution and dried in air. Following air-drying, specimens were rinsed in either methanol) or water. For the methanol rinse, specimens were suspended using forceps and agitated by hand in two consecutive 15 ml methanol rinses for 15 seconds, then allowed to air dry. For the water rinse, specimens were transferred to 10 ml of deionized water in conical tubes and aggressively vortexed for 2 minutes. Specimens were then allowed to air dry. The above steps resulting in the following four conditions: (a) 1 coat—water rinse; (b) 3 coats—water rinse; (c) 1 coat—methanol rinse; and (d) 3 coat—methanol rinse.
Dried specimens were individually extracted in 1 ml of methanol at 4° C. for 64 or 76 hours. 20 μl of each extract were run on HPLC to assess the effects of rinse method and number of coating cycles on drug loading of the coatings. HPLC conditions were as follows: 30° C.; 250×3 mm C-18 with 5 μm packing; 280 nm absorbance; Channel A—35 mM Na2HPO4 with 1 vol % triethylamine, pH=8.1 w/phosphoric acid; Channel B—acetonitrile/Running parameters at 1 ml/min: (i) 0-10 minutes—gradient 0-50 vol % Channel B; (ii) 10-20 minutes—50 vol % Channel B; (iii) 20-25 minutes—20-0 vol % Channel B.

CO[C@H]1/C=C/O[C@@]2(C)Oc3c(C)c(O)c4c(O)c(c(/C=N/N5CCN(C)CC5)c(O)c4c3C2=O)NC(=O)/C(C)=C\C=C\[C@H](C)[C@H](O)[C@@H](C)[C@@H](O)[C@@H](C)[C@H](OC(C)=O)[C@@H]1C [rifampin]
drug stability (HPLC peaks) ([1]; 50 μg/ml in acetone, with or without photoinitiator, without exposure to light, FIG. 5A): stable
drug stability (HPLC peaks) ([1]; Sample 1, solvent alone, with light exposure, FIG. 5B): degraded by light exposure
drug stability (HPLC peaks) ([1]; Sample 2, solvent + 1% wt/wt IrgaCure 2959, with light exposure, FIG. 5C): did not protect the drugs from light-induced degradation
absorption of drug into polymerized coating [2]: absorbed into the methacrylate coating matrix
